± gives the standard deviation of the averaged measurements.
What was measured:
Experiment in all cases: surviving fraction relative to DMSO-only wells; higher = less growth inhibition
Details in all cases: exposure time: 5 days
[1] = compound: CC(=O)NCC(=O)N1[C@@H]2CC[C@H]1c1ccc(Nc3ncc(C(F)(F)F)c(NC4CCC4)n3)cc12
Outline: (§1)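 Viability values are CellTiter-Glo luminescence readings, given as surviving fraction against the median of DMSO-only wells. The readings were taken after 10 minutes at room temperature, following five days of continuous exposure to inhibitors at 0.5, 1, 5, 10, 50, 100, 500 and 1000 nM that began 24 hours after log-phase tumour cell lines were seeded at 250–500 cells per well in 384-well plates. Every line was screened three times and kept only if replicate Pearson r >0.7 and median Z' >0.3.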

CELECOXIB = compound: Cc1ccc(-c2cc(C(F)(F)F)nn2-c2ccc(S(N)(=O)=O)cc2)cc1 [CELECOXIB]
Outline: as §1

GEFITINIB = compound: COc1cc2ncnc(Nc3ccc(F)c(Cl)c3)c2cc1OCCCN1CCOCC1 [GEFITINIB]
Outline: as §1

YM155 = compound: COCC[n+]1c2c(n(Cc3cnccn3)c1C)C(=O)c1ccccc1C2=O [YM155]
Outline: as §1

CAMPTOTHECIN = compound: CC[C@@]1(O)C(=O)OCc2c1cc1n(c2=O)Cc2cc3ccccc3nc2-1 [CAMPTOTHECIN]
Outline: as §1

Test System HCC78 LUNG has a surviving fraction ([1]; 0.5 nM) of 0.885 ± 0.16, a surviving fraction ([1]; 1 nM) of 0.798 ± 0.052 and a surviving fraction ([1]; 5 nM) of 0.935 ± 0.13. The surviving fraction ([1]; 10 nM) was 0.878 ± 0.28, the surviving fraction ([1]; 50 nM) was 0.735 ± 0.07 and the surviving fraction ([1]; 100 nM) was 0.188 ± 0.064. The surviving fraction ([1]; 500 nM) was 0.236 ± 0.082, the surviving fraction ([1]; 1000 nM) was 0.298 ± 0.075 and the surviving fraction (CELECOXIB; 0.5 nM) was 0.815 ± 0.2. For the same test system, the surviving fraction (CELECOXIB; 1 nM) was 0.894 ± 0.038, the surviving fraction (CELECOXIB; 5 nM) was 0.89 ± 0.28 and the surviving fraction (CELECOXIB; 10 nM) was 1.05 ± 0.18. It also gave a surviving fraction (CELECOXIB; 50 nM) of 0.886 ± 0.14, a surviving fraction (CELECOXIB; 100 nM) of 1.05 ± 0.082 and a surviving fraction (CELECOXIB; 500 nM) of 0.973 ± 0.09. For the same test system, the surviving fraction (CELECOXIB; 1000 nM) was 0.801 ± 0.028, the surviving fraction (GEFITINIB; 0.5 nM) was 1.03 ± 0.2 and the surviving fraction (GEFITINIB; 1 nM) was 0.938 ± 0.12. For the same test system, the surviving fraction (GEFITINIB; 5 nM) was 1.01 ± 0.1, the surviving fraction (GEFITINIB; 10 nM) was 0.994 ± 0.12 and the surviving fraction (GEFITINIB; 50 nM) was 0.967 ± 0.12. The surviving fraction (GEFITINIB; 100 nM) was 0.963 ± 0.067, the surviving fraction (GEFITINIB; 500 nM) was 0.711 ± 0.23 and the surviving fraction (GEFITINIB; 1000 nM) was 0.668 ± 0.19. For the same test system, the surviving fraction (YM155; 0.5 nM) was 0.7 ± 0.12, the surviving fraction (YM155; 1 nM) was 0.701 ± 0.23 and the surviving fraction (YM155; 5 nM) was 0.457 ± 0.059. For the same test system, the surviving fraction (YM155; 10 nM) was 0.269 ± 0.062, the surviving fraction (YM155; 50 nM) was 0.0407 ± 0.0029 and the surviving fraction (YM155; 100 nM) was 0.0247 ± 0.004. It also gave a surviving fraction (YM155; 500 nM) of 0.016, a surviving fraction (YM155; 1000 nM) of 0.0187 ± 0.0025 and a surviving fraction (CAMPTOTHECIN; 0.5 nM) of 0.33 ± 0.059. The surviving fraction (CAMPTOTHECIN; 1 nM) was 0.597 ± 0.15, the surviving fraction (CAMPTOTHECIN; 5 nM) was 0.0267 ± 0.0057 and the surviving fraction (CAMPTOTHECIN; 10 nM) was 0.0123 ± 0.0031. It also gave a surviving fraction (CAMPTOTHECIN; 50 nM) of 0.0137 ± 0.0031, a surviving fraction (CAMPTOTHECIN; 100 nM) of 0.0147 ± 0.0023 and a surviving fraction (CAMPTOTHECIN; 500 nM) of 0.013 ± 0.0027.
